# Experimental data from patent US7098195B2, “Fluorinated glucosamine analogs useful for modulating post-translational glycosylations on cells” (Health Research, Inc., priority 2001, dated 2006).
# Read-outs that look alike come from different tables or passages of the source.
# Assays:
# [1] = system: P-selectin ligand activity of CLA+ T-lymphocytes; assay: Parallel-plate flow chamber, CLA+ T-cell tethering and rolling on P-selectin chimera; format: cell-based, human
# Procedure: To analyze the affects of 4-F-GlcNAc on the function of CLA on human T-cells, we examined the ability of 4-F-GlcNAc-treated (0.05, 0.1, 0.5 mM for 30 hrs) CLA-+ T-cells cultures to engage with immobilized E- and P-selectin chimera in the parallel-plate flow chamber. As described for flow cytometric analyses (Example 13), cells were first pretreated with neuraminidase to remove terminal sialic acid residues required for HECA-452 reactivity and for E- and P-selectin ligand activity of CLA. This approach allowed for the assessment on de novo synthesized CLA molecules.
# Tethering and rolling of human T-cells on recombinant human E- and P-selectin-Ig chimera (provided by Dr. Robert Fuhlbrigge, Harvard Medical School) and human L-selectin-Ig (gift from Dr. Ray Camphausen, Wyeth/Genetics Institute, Inc., Cambridge, Mass.) were analyzed in the parallel-plate flow chamber under physiologic shear stress conditions (3). To prepare E- and P-selectin-Ig chimera spots, protein A (300 μg/15 μl 0.1M NaHCO3) was adsorbed to Ten-twenty-nine™ Petri dishes for 2 h at 37° C. Human serum albumin ([…] PBS) then added and incubated for 2 h at 37° C. to block non-specific binding sites. E-selectin-Ig (50 ng/50 μl PBS) or P-selectin-Ig (50 ng/50 μl PBS) solutions was pipetted directly over the pre-existing protein A spots for 18 h at 4° C. To prepare L-selectin-Ig spots, L-selectin-Ig (300 ng/15 μl PBS) or isotype control human IgG (300 ng/15 μl) were adsorbed directly to plastic (non-protein A-coated) for 18 h at 4° C. and blocked in 100% FBS for 2 h at 4° C.
# CLA^+ T-cells or freshly isolated PBL were treated with neuraminidase and metabolic glycosylation inhibitors or with protease (bromelain) as described above, washed twice in HBSS, suspended at 2×10^6/ml in HBSS/10 mM HEPES/2 mM CaCl2 (H/H/Ca^++) and infused into the chamber over selectin chimeras. Protease treatment was performed to control for residual E-selectin activity not attributable to the expression of CLA on a protein scaffold. Cell tethering was permitted at 0.6 dynes/cm^2 for 1 min, then stepwise increments in shear stress every 15 sec were employed to a final shear stress level of 60 dynes/cm^2. The number of cells rolling/viewing field (at 100× magnification) was quantified at each level of shear stress in triplicates for a minimum of three experiments. […] Negative control experiments were performed in parallel, wherein cell binding was examined in H/H adhesion assay medium containing 5 mM EDTA as well as assaying cell binding to human IgG isotype control.
# Utilizing the parallel-plate flow chamber under physiologic shear stress conditions, E-, P- and L-selectin ligand activities of human CLA^+ T-cells treated were analyzed in an identical manner as cells prepared for Western blotting and autoradiography studies.
# [2] = system: HECA-452 epitopes on PSGL-1; assay: Western blot of HECA-452 epitopes on PSGL-1 of CLA+ T-cells; format: cell-based, human
# Procedure: For analysis of CLA expression on T-cells treated with glycoconjugate modifiers, CLA^+ T-cells were first pretreated with neuraminidase (0.1 U/ml at 37° C. for 1 h) to eliminate functional CLA and cleave all HECA-452 reactive epitopes from the cell surface (35–38). Since we wanted to investigate whether these compounds directly affected CLA expression and function, neuraminidase pretreatment followed by incubations with glycosylation modifiers allowed for examination of de novo synthesized CLA/HECA-452 epitopes re-expressed on the cell surface. After neuraminidase digestion, cells were then incubated with tunicamycin (0.02 mM) (an inhibitor of GlcNAc phosphotransferase, the initial step of N-glycosylation), swainsonine (0.23 mM) (an inhibitor of α-mannosidase II and complex-type N-glycosylation), 4-F-GlcNAc (0.05 mM) (putative inhibitor of poly-N-acetyllactosamine biosynthesis), BAG (an inhibitor of O-glycan biosynthesis) (<2 mM) or GlcNAc (5 mM) (negative control, naturally-occurring metabolic counterpart of 4-F-GlcNAc)for 30 h in the presence of human recombinant IL-2. […] Concentrations for BAG were selected based on maximal O-glycosylation inhibitory effects at non-growth inhibitory concentrations as previously reported (39). To determine a suitable concentration of 4-F-GlcNAc for examining glycoconjugate-modifying effects without influencing cell growth or protein synthesis, we performed preliminary growth inhibitory experiments of cells incubated with 4-F-GlcNAc for 2 cell doublings (˜36 h) at 37° C. (cell viability assessed by Trypan-blue exclusion).
# For lysate preparation, cells (including radiolabeled cells) were washed 3× in ice cold PBS and lysed in buffer containing 150 mM NaCl, 50 mM Tris-HCl pH 7.4, 1 mM EDTA, 0.02% NaAzide, 20 μg/ml PMSF, Complete™ protease inhibitors cocktail tablets (Roche Molecular Biochemicals) and 2% NP-40 (250 μl/10^8 cells). Following 2 h incubation on ice, insoluble cellular debris was pelleted by centrifugation for 30 min at 10,000×g at 4° C. and solubilized protein lysate was collected and quantified by Bradford protein assay (Sigma Chemical). SDS was added to a final concentration of 1% in lysate preparations utilized for immunoprecipitation experiments.
# For SDS-PAGE and Western blotting, cell lysates, membrane proteins or immunoprecipitates were diluted and boiled in reducing sample buffer, and separated on 7–9% SDS-PAGE gels. Resolved protein was transferred to Sequi-blot™ PVDF membrane (Bio-Rad, Inc., Hercules, Calif.) and blocked with FBS for 1 hr at RT. Blots were incubated with rat IgM anti-human CLA HECA-452 (1 μg/ml), mouse IgG anti-human PSGL-1 moAbs PL-2 (1 μg/ml), 203, 4F9 and 4D8 (1 μg each/ml), or mouse IgG anti-human CD43 L60 (1 μg/ml) for 1 hr at RT. Isotype control immunoblots using either rat IgM or mouse IgG were performed in parallel to evaluate non-specific reactive proteins. After three washes with PBS/0.1%Tween-20 (10 min/wash), blots were incubated with the respective secondary Ab, AP-conjugated goat anti-rat IgM (1:400) or goat anti-mouse IgG (1:8000). AP substrate, Western Blue® (Promega, Madison, Wis.) was then added to develop blots.
# Cells were then re-cultured in the presence of glycosylation inhibitor, diluent control (PBS) or molecular control (GlcNAc) for 30 hr and then harvested for CLA expression and functional analysis. […] To assess the duration of anti-carbohydrate effects on HECA-452 expression on PSGL-1, cells treated with 4-F-GlcNAc for 30 h and were then re-cultured in non-4-F-GlcNAc-containing medium for 72 h.
# [3] = 30 h after neuraminidase, tunicamycin 0.02 mM, swainsonine 0.23 mM, 4-F-GlcNAc 0.05 mM, BAG 2.0 mM, GlcNAc 5.0 mM
compound,measurement,setting,value
"CC(=O)N[C@H]1C(OC(C)=O)O[C@H](COC(C)=O)[C@@H](F)[C@@H]1OC(C)=O (stereo partly drawn) [4-F-GlcNAc, 2-acetamido-2-deoxy-1,3,6-tri-O-acetyl-4-deoxy-4-fluoro-D-glucopyranose]",difference in cell rolling frequency on P-selectin chimera vs PBS recovery,"[1]; 0.05 mM, p<0.001",statistically significant
same,rolling adhesions on P-selectin chimera,"[1]; at 2.0 dynes/cm^2, tunicamycin 0.02 mM, swainsonine 0.23 mM, 4-F-GlcNAc 0.05 mM, BAG 2.0 mM, p<0.01",significant reductions
same,CLA+ T-cell tethering and rolling mediated by P-selectin,[1]; neuraminidase then 0.1 and 0.5 mM for 30 hrs,completely abolished
same,"potency at lowering HECA-452 expression relative to BAG, on a molar basis",[2],more potent than BAG
same,de novo synthesized HECA-452 epitopes on PSGL-1 (Western blot),[2]; [3],marked reduction
same,duration of suppression of HECA-452 expression on PSGL-1 after removal of drug,[2]; treated for 30 h then re-cultured in non-4-F-GlcNAc-containing medium for 72 h,48 h
"CC(=O)N[C@H]1C(O)O[C@H](CO)[C@@H](O)[C@@H]1O (some centres unmarked) [GlcNAc, N-acetylglucosamine]",recovery of P-selectin ligand activity,"[1]; 30 h following neuraminidase digestion, drug control",> 80 % recovery
same,de novo synthesized HECA-452 epitopes on PSGL-1 (Western blot),[2]; [3],not affected
O[C@H]1[C@H]2[C@H](O)CCCN2C[C@H]1O [swainsonine],rolling adhesions on P-selectin chimera,[1],no effect
same,de novo synthesized HECA-452 epitopes on PSGL-1 (Western blot),[2],not affected
tunicamycin,rolling adhesions on P-selectin chimera,[1],significant reductions
same,de novo synthesized HECA-452 epitopes on PSGL-1 (Western blot),[2],marked reduction
same,"potency at lowering HECA-452 expression relative to 4-F-GlcNAc, on a molar basis",[2],2.5 fold
same,effects on HECA-452 expression,"[2]; below 0.015 mM, preliminary, data not shown",minimal effects
